Earlier results as cited in patent publication US20260102408A1, “CONTRACEPTIVE COMPOSITIONS WITH REDUCED ADVERSE EFFECTS” (ESTETRA SRL, priority 2020, published 2026).

Settings: single oral dose; Blode H et al. Study 1; Caucasian; geometric mean

AUCinf of DRSP: 506 ng·h/mL
Cmax of DRSP: 33.9 ng/mL
SMILES: C[C@]12CCC(=O)C=C1[C@@H]1C[C@@H]1[C@H]1[C@@H]3[C@@H]4C[C@@H]4[C@@]4(CCC(=O)O4)[C@@]3(C)CC[C@@H]12 [DRSP 3 mg, drospirenone]
